Experimental data from patent publication US20260263550A1, “METHODS AND COMPOSITIONS FOR TREATING, PREVENTING, INHIBITING, AMELIORATING OR DELAYING THE ONSET OF OPHTHALMIC CONDITIONS” (Stealth BioTherapeutics Inc., priority 2021, published 2026).
Where “and” joins values, the source holds several entries; their conditions need not be identical. Equal entries are not always repeated.

How the values were obtained:
[1] = 28-day SC study safety endpoints (clinical observations, ophthalmology); format: in vivo, cynomolgus monkey
Procedure: Male and female cynomolgus monkeys were divided into four groups (Groups 1 to 4). Groups 1 and 4 consisted of five males and five females each and Groups 2 and 3 consisted of three males and three females each. Animals were dosed via SC injection once daily for 28 consecutive days. Group 1 animals received the control article, 0.9% sodium chloride injection, USP (saline). Group 2, 3, and 4 animals received the test article, compound of Formula IIa, at dose levels of 2, 5, and 15 mg/kg/day, respectively. Three males and three females from Groups 1 to 3, and three males and one female from Group 4 were necropsied on Day 29 (terminal necropsy). Two males and two females from Groups 1 and 4 were necropsied on Day 42 (recovery necropsy), after a 13-day treatment-free period. […] At termination, gross observations and organ weights were recorded, and eye/optic nerve tissue samples were collected for microscopic evaluation and biodistribution assays. […]
Body weight. Body weights were measured twice during acclimation (including Day −1), then weekly during the in-life phase (Days 7, 14, 21, 28, 35, and 41) and on the day of corresponding necropsy (Day 29 or Day 42). […]

[2] = Uptake in the retina after 10-day SC dosing, LC-MS/MS; format: in vivo, cynomolgus monkey; details: male cynomolgus monkeys 1001-1003, SC 5 mg/kg/day for 10 days, left eye, approximately 24 hours after the last dose
Procedure: Administration of Compound of Formula IIa. The test agent (compound of formula IIa) was administered daily via subcutaneous injection into the scapular and mid-dorsal areas for 10 days. The first day of dosing was designated as Day 1. Dose formulations were allowed to warm up at ambient temperature for at least 30 minutes prior to dosing, as appropriate. The animals were temporarily restrained for dose administration and were not sedated. The volume for each dose was administered over 1 (preferred) or 2 (as necessary) separated injections within the designated area. If a designated injection site was not available for a given animal on any day, the next available test site in the rotation was used. The injection area was marked as frequently as required to allow appropriate visualization of administration sites. On the last injection occasion for each quadrant, the last site of injection was circled, and the circled site was collected for necropsy.
Tissue collection, preservation, and analysis. Eye tissue (retina) was collected approximately 24 hours after the last dose on Day 10. […]
Tissue samples were prepared and analyzed by methods similar to those described above in Example 3. In brief, concentrations of test article (compound of Formula IIa) in the retina (ng/g tissue) was determined by LC-MS/MS using Formula IIb as a standard.

[3] = system: iPSC-derived RPE cells from AMD donors; assay: Measurement of mitochondrial function (Seahorse XF Cell Mito Stress Test); format: cell-based, human; details: 10, 100, 1000 nM, treatment began 24 hours prior to assay, FIGS. 8AA-8AL
Procedure: Measurement of mitochondrial function. Analysis of mitochondrial function was performed on live iPSC-derived RPE cells from AMD donors (n=3; 2 atrophic with GA, 1 exudative) treated with drug (elamipretide, compound of Formula IIa, or vehicle) as described below and iPSC-derived RPE cells from non-diseased controls (n=2) using the XFe96 Extracellular Flux Analyzer (Agilent Technologies, Santa Clara, California, www.agilent.com) and the Seahorse XF Cell Mito Stress Test (CMST) Kit (Agilent Technologies). iPSC-derived RPE cells were seeded onto a laminin-coated Seahorse XF plates and grown until confluent. Data were normalized by cell count. Drug treatments began 24 hours prior to assay. […]
Cells were stained with DAPI and counted by ImageJ software (National Institute of Health, Bethesda, Maryland, www.nih.gov). […] Oxygen consumption rate was detected under basal conditions followed by the sequential addition of oligomycin, carbonyl cyanide 4-(trifluoromethoxy) phenylhydrazone (FCCP), rotenone, and antimycin A. From these sequential additions, the following parameters can be derived: basal respiration, ATP production, maximal respiration, and spare respiratory capacity.

Q: With Cc1cc(O)cc(C)c1C[C@H](NC(=O)[C@H](N)CCCNC(=N)N)C(=O)N[C@@H](CCCCN)c1nc(Cc2ccccc2)no1.Cl.Cl.Cl [Formula IIa, (R)-2-amino-N—((S)-1-(((S)-5-amino-1-(3-benzyl-1,2,4-oxadiazol-5-yl)pentyl)amino)-3-(4-hydroxy-2,6-dimethylphenyl)-1-oxopropan-2-yl)-5-guanidinopentanamide] as the compound, how does the tolerability of dosing ([1]; SC 15 mg/kg/day (Group 4), two females necropsied early on Days 25 and 27) read?
A: The tolerability of dosing was “not well tolerated”.

Q: What about the ophthalmology examination findings ([1]; SC 2, 5, 15 mg/kg/day, Day 24 (Week 4)) of the same compound?
A: Its ophthalmology examination findings is “no compound of Formula IIa-related findings”.

Q: And the “Concentration in Retina at Day 11 (individual subjects)” value [2]?
A: The value was 382 ng/g and 336 ng/g and 126 ng/g.

Q: And the “mitochondrial function (ATP production; basal respiration; maximal respiration; spare respiratory capacity)” value [3]?
A: The value was “efficacy in improving mitochondrial function”.
